Measured values published in patent US20220281848A1, “PYRAZOLE-SUBSTITUTED PYRROLIDINONES AS HERBICIDES” (FMC Corporation, priority 2019, published 2022).

System: plants
Assay: Test D pre-emergence, other plants of Tables D1 and D3
Assay type: in vivo
Conditions: for damage to plant, ALOMY / damage to plant, AVEFA / damage to plant, BEAVA / damage to plant, BROTE / damage to plant, BRSNN / damage to plant, CHEAL / damage to plant, GALAP / damage to plant, HORVW / damage to plant, KCHSC / damage to plant, LOLPE / damage to plant, POAAN / damage to plant, POLCO / damage to plant, SINAR / damage to plant, STEME / damage to plant, VERPE: pre-emergence, 100=total damage, 0=no damage
Description: A formulation containing 50 g/L of the test chemical was prepared by dissolving the active ingredient in a mixture of organic solvents and emulsifier, details of which are provided in the table. This formulation was then mixed with a small, variable amount of acetone to aid dissolution, before addition of a 0.2% v/v aqueous solution of an adjuvant, as the aqueous diluent, to form an aqueous spray solution which contains a predetermined concentration of the active ingredient.
This aqueous spray solution was then sprayed onto plants including maize and wheat that had been seed treated with a herbicide safener, after one day's cultivation (for pre-emergence) or after about 12 days' cultivation (for post-emergence). The plants were grown from seeds sown in standard soil, placed in a glasshouse under controlled conditions (at 24/18° C. or 20/16° C., day/night; 16 h light; 65% humidity). After spray application the plants were then grown in a glasshouse under the same conditions and watered twice daily. After 15 d for post-emergence and 20 DAA for pre-emergence the test was evaluated (100=total damage to plant; 0=no damage to plant).

CN1CC(c2cc(C(F)(F)F)n(C)n2)C(C(=O)Nc2ccc(F)c(F)c2F)C1=O (racemic) [Compound 17]
40: damage to plant, LOLPE (rate 130, 20 DAA) | damage to plant, BROTE (rate 250, 20 DAA) | damage to plant, HORVW (rate 250, 20 DAA)
70: damage to plant, POAAN (rate 130, 20 DAA) | damage to plant, AVEFA (rate 250, 20 DAA) | damage to plant, CHEAL (rate 500, 20 DAA)
0: damage to plant (100=total damage to plant; 0=no damage to plant), SORVU (SORVU, preemergent, rate 500, 20 DAA) | damage to plant, ALOMY (rate 15, 20 DAA) | damage to plant, AVEFA (rate 15, 20 DAA) | damage to plant, BEAVA (rate 15, 20 DAA) | damage to plant, BROTE (rate 15, 20 DAA) | damage to plant, BRSNN (rate 15, 20 DAA) | damage to plant, CHEAL (rate 15, 20 DAA) | damage to plant, GALAP (rate 15, 20 DAA) | damage to plant, HORVW (rate 15, 20 DAA) | damage to plant, KCHSC (rate 15, 20 DAA) | damage to plant, LOLPE (rate 15, 20 DAA) | damage to plant, POAAN (rate 15, 20 DAA) | damage to plant, POLCO (rate 15, 20 DAA) | damage to plant, SINAR (rate 15, 20 DAA) | damage to plant, STEME (rate 15, 20 DAA) | damage to plant, VERPE (rate 15, 20 DAA) | damage to plant, ALOMY (rate 30, 20 DAA) | damage to plant, AVEFA (rate 30, 20 DAA) | damage to plant, BEAVA (rate 30, 20 DAA) | damage to plant, BROTE (rate 30, 20 DAA) | damage to plant, BRSNN (rate 30, 20 DAA) | damage to plant, CHEAL (rate 30, 20 DAA) | damage to plant, GALAP (rate 30, 20 DAA) | damage to plant, HORVW (rate 30, 20 DAA) | damage to plant, KCHSC (rate 30, 20 DAA) | damage to plant, LOLPE (rate 30, 20 DAA) | damage to plant, POLCO (rate 30, 20 DAA) | damage to plant, SINAR (rate 30, 20 DAA) | damage to plant, STEME (rate 30, 20 DAA) | damage to plant, VERPE (rate 30, 20 DAA) | damage to plant, ALOMY (rate 60, 20 DAA) | damage to plant, AVEFA (rate 60, 20 DAA) | damage to plant, BEAVA (rate 60, 20 DAA) | damage to plant, BROTE (rate 60, 20 DAA) | damage to plant, BRSNN (rate 60, 20 DAA) | damage to plant, GALAP (rate 60, 20 DAA) | damage to plant, HORVW (rate 60, 20 DAA) | damage to plant, KCHSC (rate 60, 20 DAA) | damage to plant, POLCO (rate 60, 20 DAA) | damage to plant, SINAR (rate 60, 20 DAA) | damage to plant, STEME (rate 60, 20 DAA) | damage to plant, VERPE (rate 60, 20 DAA) | damage to plant, BEAVA (rate 130, 20 DAA) | damage to plant, BROTE (rate 130, 20 DAA) | damage to plant, BRSNN (rate 130, 20 DAA) | damage to plant, GALAP (rate 130, 20 DAA) | damage to plant, KCHSC (rate 130, 20 DAA) | damage to plant, POLCO (rate 130, 20 DAA) | damage to plant, SINAR (rate 130, 20 DAA) | damage to plant, BEAVA (rate 250, 20 DAA) | damage to plant, BRSNN (rate 250, 20 DAA) | damage to plant, GALAP (rate 250, 20 DAA) | damage to plant, SINAR (rate 250, 20 DAA) | damage to plant, SINAR (rate 500, 20 DAA)
50: damage to plant, ALOMY (rate 130, 20 DAA) | damage to plant, CHEAL (rate 130, 20 DAA)
80: damage to plant, LOLPE (rate 250, 20 DAA) | damage to plant, POAAN (rate 250, 20 DAA) | damage to plant, ALOMY (rate 500, 20 DAA) | damage to plant, AVEFA (rate 500, 20 DAA) | damage to plant, LOLPE (rate 500, 20 DAA)
90: damage to plant, HORVW (rate 500, 20 DAA) | damage to plant, POAAN (rate 500, 20 DAA) | damage to plant, VERPE (rate 500, 20 DAA)
20: damage to plant, POAAN (rate 30, 20 DAA) | damage to plant, LOLPE (rate 60, 20 DAA) | damage to plant, POLCO (rate 250, 20 DAA) | damage to plant, BRSNN (rate 500, 20 DAA) | damage to plant, GALAP (rate 500, 20 DAA)
30: damage to plant, POAAN (rate 60, 20 DAA) | damage to plant, VERPE (rate 130, 20 DAA) | damage to plant, STEME (rate 250, 20 DAA) | damage to plant, KCHSC (rate 500, 20 DAA) | damage to plant, POLCO (rate 500, 20 DAA)
60: damage to plant, AVEFA (rate 130, 20 DAA) | damage to plant, ALOMY (rate 250, 20 DAA) | damage to plant, CHEAL (rate 250, 20 DAA) | damage to plant, VERPE (rate 250, 20 DAA) | damage to plant, BROTE (rate 500, 20 DAA) | damage to plant, STEME (rate 500, 20 DAA)
10: damage to plant, HORVW (rate 130, 20 DAA) | damage to plant, STEME (rate 130, 20 DAA) | damage to plant, KCHSC (rate 250, 20 DAA) | damage to plant, BEAVA (rate 500, 20 DAA)
